Source: US20100009853A1, “PARASITIC PLANT CONTROL AGENT AND USE THEREOF” (Nihon Nohyaku Co., Ltd, priority 2006, published 2010)
Several values for one entry are separate records, joined by “and”; a condition that tells them apart may be missing. Equal values may be shown once. Blank lines part the entries; values can stand above or below the compound they belong to.

Tests used:
Type in all cases: in vivo
Orobanche minor [1] = experiment: Test Example 3: foliage application treatment, parasitism of Orobanche minor on red clover; settings: for Average parasitism frequency per root: foliage application at 10, 20 and 30 days after sowing, untreated plot 2.55; for S4 bud formation per root: untreated plot 0.52
Source text: (§1) The red clover seeds were sowed in a pot packed with soil (1/10000 ares) and Orobanche minor seeds were sowed around the red clover seeds, followed by cultivation in a greenhouse. After 10, 20 and 30 days of the sowing, sufficient amount of agent liquid diluted to a predetermined concentration with water was applied to the foliage using an atomizer, from single- to double-leaf stage of the red clover.

Orobanche minor [2] = experiment: Test Example 1: seed soaking treatment, parasitism of Orobanche minor on red clover; settings: for Average parasitism frequency per root / S4 bud formation per root: seed soaking 24 h; for Average parasitism frequency per root: red clover host, untreated plot 2.55; for S4 bud formation per root: untreated plot 0.52
Procedure: (§2) Red clover seeds were soaked for 24 hours in agent liquid which had been prepared into a predetermined concentration. The red clover seeds were sowed in a pot packed with soil (1/10000 ares) and Orobanche minor seeds were sowed around the red clover seeds, followed by cultivation in a greenhouse. Growth of the red clover and the parasitism frequency and growth of Orobanche minor were observed by visual observation. The growth of Orobanche minor was evaluated based on the following four steps. [table]

Orobanche minor [3] = experiment: Test Example 2: soil irrigation treatment, parasitism of Orobanche minor on red clover; settings: for Average parasitism frequency per root: soil irrigation 20 ml/pot at 10, 20 and 30 days after sowing, untreated plot 2.55; for S4 bud formation per root: untreated plot 0.52
Procedure: (§3) The red clover seeds were sowed in a pot packed with soil (1/10000 ares) and Orobanche minor seeds were sowed around the red clover seeds, followed by cultivation in a greenhouse. After 10, 20 and 30 days of the sowing, an agent liquid prepared into a predetermined concentration was irrigation-treated at a ratio of 20 ml/pot.

parasitic plant = experiment: Parasitic plant controlling activity (general statement); settings: general statement in the description
red clover [4] = experiment: Test Example 3: effect of foliage application on the host red clover
Source text: as §1

Orobanche minor [5] = experiment: Test Example 4: seed soaking treatment, parasitism of Orobanche minor on red clover; settings: for S4 bud formation per root / Average parasitism frequency per root: seed soaking 24 h; for S4 bud formation per root: untreated plot 0.45; for Average parasitism frequency per root: untreated plot 2.08; for S4 bud formation / total parasitism frequency of Orobanche minor: seed soaking, all treatment plots (200 and 20 ppm)
Procedure: as §2, with “observation.” for “observation. The growth of Orobanche minor was evaluated based on the following four steps. [table]”

Orobanche minor [6] = experiment: Test Example 5: soil irrigation treatment, parasitism of Orobanche minor on red clover; settings: for Average parasitism frequency per root: soil irrigation 20 ml/pot at 10, 20 and 30 days after sowing, untreated plot 2.08; for S4 bud formation per root / parasitism frequency / S4 bud formation: soil irrigation; for S4 bud formation per root: untreated plot 0.45; for parasitism frequency: 2000 and 200 ppm; for S4 bud formation: all treatment plots
Procedure: as §3, with “sowing,” for “sowing, an”

red clover [7] = experiment: Test Example 5: phytotoxicity of soil irrigation treatment on red clover; settings: symptom growth inhibition
Procedure: as §3, with “sowing,” for “sowing, an”

Orobanche minor [8] = experiment: Test Example 6: foliage application treatment, parasitism of Orobanche minor on red clover; settings: for Average parasitism frequency per root: foliage application at 10, 20 and 30 days after sowing, untreated plot 2.08; for S4 bud formation per root / parasitism frequency decreasing tendency / S4 bud formation / parasitism frequency: foliage application; for S4 bud formation per root: untreated plot 0.45; for parasitism frequency decreasing tendency: 200 ppm or less; for S4 bud formation: 2000 and 200 ppm
Source text: as §1

crop plants = experiment: Phytotoxicity for crop plants (general statement); settings: general statement in the description

red clover withered (fraction of plants per pot) (red clover [4]; first treatment with 200 ppm, two pots): 4/6 and 1/5
Compound: O=C(O)c1ccccc1O [SA, salicylic acid]
Average parasitism frequency per root (Orobanche minor [1]; 2 ppm): 1.91 per root | S4 bud formation per root (Orobanche minor [1]; foliage application, 2 ppm): 0.17 per root | S4 bud formation per root (Orobanche minor [1]; foliage application, 20 ppm): 0.38 per root | parasitism frequency (Orobanche minor [1]; foliage application, 200 ppm): large | Average parasitism frequency per root (Orobanche minor [2]; 20 ppm): 2.09 per root | S4 bud formation per root (Orobanche minor [2]; 20 ppm): 0.38 per root | Average parasitism frequency per root (Orobanche minor [2]; 200 ppm): 2.17 per root | S4 bud formation per root (Orobanche minor [2]; 200 ppm): 0.44 per root | Average parasitism frequency per root (Orobanche minor [3]; 2 ppm): 1.75 per root | Average parasitism frequency per root (Orobanche minor [3]; 20 ppm): 2.47 per root | S4 bud formation per root (Orobanche minor [3]; soil irrigation, 2 ppm): 0.06 per root | S4 bud formation per root (Orobanche minor [3]; soil irrigation, 20 ppm): 0.03 per root | parasitic plant controlling activity (parasitic plant): not so high

Compound: N#Cc1ccccc1NC(=O)c1snc(Cl)c1Cl [CICA, N-(2-cyanophenyl)-3,4-dichloroisothiazole-5-carboxamide]
S4 bud formation per root (Orobanche minor [5]; 20 ppm): 0.11 per root | Average parasitism frequency per root (Orobanche minor [5]; 20 ppm): 1.36 per root | S4 bud formation per root (Orobanche minor [5]; 200 ppm): 0.09 per root | Average parasitism frequency per root (Orobanche minor [5]; 200 ppm): 1.15 per root | S4 bud formation (Orobanche minor [5]): decreasing tendency | total parasitism frequency of Orobanche minor (Orobanche minor [5]): decreasing tendency | Average parasitism frequency per root (Orobanche minor [6]; 20 ppm): 1.99 per root | Average parasitism frequency per root (Orobanche minor [6]; 200 ppm): 1.39 per root | Average parasitism frequency per root (Orobanche minor [6]; 2000 ppm): 0.15 per root | S4 bud formation per root (Orobanche minor [6]; 20 ppm): 0.10 per root | S4 bud formation per root (Orobanche minor [6]; 200 ppm): 0.09 per root | parasitism frequency (Orobanche minor [6]): reducing tendency | S4 bud formation per root (Orobanche minor [6]; 2000 ppm): 0.04 per root | S4 bud formation (Orobanche minor [6]): reduced | phytotoxicity (red clover [7]; 2000 ppm): weak | Average parasitism frequency per root (Orobanche minor [8]; 20 ppm): 3.01 per root | Average parasitism frequency per root (Orobanche minor [8]; 200 ppm): 2.05 per root | Average parasitism frequency per root (Orobanche minor [8]; 2000 ppm): 0.44 per root | S4 bud formation per root (Orobanche minor [8]; 20 ppm): 0.60 per root | parasitism frequency decreasing tendency (Orobanche minor [8]): unclear | S4 bud formation per root (Orobanche minor [8]; 200 ppm): 0.25 per root | S4 bud formation (Orobanche minor [8]): decreasing tendency | parasitism frequency (Orobanche minor [8]; 2000 ppm): decreasing tendency | S4 bud formation per root (Orobanche minor [8]; 2000 ppm): 0.03 per root

Compound: Cc1ccc(NC(=O)c2snnc2C)cc1Cl [TDN, tiadinil]
parasitism, dose relation (Orobanche minor [1]; foliage application): dose-related lowering | Average parasitism frequency per root (Orobanche minor [1]; 20 ppm): 1.49 per root | Average parasitism frequency per root (Orobanche minor [1]; 200 ppm): 1.02 per root | Average parasitism frequency per root (Orobanche minor [1]; 2000 ppm): 0.24 per root | S4 bud formation per root (Orobanche minor [1]; foliage application, 20 ppm): 0.15 per root | S4 bud formation per root (Orobanche minor [1]; foliage application, 200 ppm): 0.06 per root | effect on parasitism (Orobanche minor [1]; foliage application, 2000 ppm): high effect | S4 bud formation per root (Orobanche minor [1]; foliage application, 2000 ppm): 0.03 per root | Average parasitism frequency per root (Orobanche minor [2]; 20 ppm): 1.07 per root | S4 bud formation per root (Orobanche minor [2]; 20 ppm): 0.08 per root | Average parasitism frequency per root (Orobanche minor [2]; 200 ppm): 2.57 per root | S4 bud formation per root (Orobanche minor [2]; 200 ppm): 0.21 per root | Average parasitism frequency per root (Orobanche minor [2]; 2000 ppm): 2.01 per root | S4 bud formation per root (Orobanche minor [2]; 2000 ppm): 0.15 per root | number of total parasitized cases of Orobanche minor (Orobanche minor [2]; seed soaking, 20 ppm): reducing tendency | S4 bud formation per root (Orobanche minor [5]; 20 ppm): 0.10 per root | Average parasitism frequency per root (Orobanche minor [5]; 20 ppm): 1.12 per root | S4 bud formation per root (Orobanche minor [5]; 200 ppm): 0.12 per root | Average parasitism frequency per root (Orobanche minor [5]; 200 ppm): 0.05 per root | S4 bud formation (Orobanche minor [5]): decreasing tendency | total parasitism frequency of Orobanche minor (Orobanche minor [5]): decreasing tendency | phytotoxicity (crop plants): low | Average parasitism frequency per root (Orobanche minor [6]; 20 ppm): 2.22 per root | Average parasitism frequency per root (Orobanche minor [6]; 200 ppm): 1.55 per root | Average parasitism frequency per root (Orobanche minor [6]; 2000 ppm): 0.22 per root | S4 bud formation per root (Orobanche minor [6]; 20 ppm): 0.13 per root | S4 bud formation per root (Orobanche minor [6]; 200 ppm): 0.11 per root | parasitism frequency (Orobanche minor [6]): reducing tendency | S4 bud formation per root (Orobanche minor [6]; 2000 ppm): 0.07 per root | S4 bud formation (Orobanche minor [6]): reduced | effective concentration (Orobanche minor [3]; soil irrigation): ≥ 200 ppm | parasitism, dose relation (Orobanche minor [3]; soil irrigation): dose-related lowering | Average parasitism frequency per root (Orobanche minor [3]; 2 ppm): 2.36 per root | Average parasitism frequency per root (Orobanche minor [3]; 20 ppm): 1.71 per root | Average parasitism frequency per root (Orobanche minor [3]; 200 ppm): 0.53 per root | Average parasitism frequency per root (Orobanche minor [3]; 2000 ppm): 0.03 per root | S4 bud formation per root (Orobanche minor [3]; soil irrigation, 2 ppm): 0.17 per root | S4 bud formation per root (Orobanche minor [3]; soil irrigation, 20 ppm): 0.10 per root | S4 bud formation per root (Orobanche minor [3]; soil irrigation, 200 ppm): 0.16 per root | Parasitism (Orobanche minor [3]; soil irrigation, 2000 ppm): hardly found | S4 bud formation per root (Orobanche minor [3]; soil irrigation, 2000 ppm): 0.00 per root | phytotoxicity (red clover [7]; 200 ppm): weak | phytotoxicity (red clover [7]; 2000 ppm): strong | parasitic plant controlling activity (parasitic plant): high | Average parasitism frequency per root (Orobanche minor [8]; 20 ppm): 2.25 per root | Average parasitism frequency per root (Orobanche minor [8]; 200 ppm): 1.92 per root | Average parasitism frequency per root (Orobanche minor [8]; 2000 ppm): 0.34 per root | S4 bud formation per root (Orobanche minor [8]; 20 ppm): 0.49 per root | parasitism frequency decreasing tendency (Orobanche minor [8]): unclear | S4 bud formation per root (Orobanche minor [8]; 200 ppm): 0.35 per root | S4 bud formation (Orobanche minor [8]): decreasing tendency | parasitism frequency (Orobanche minor [8]; 2000 ppm): decreasing tendency | S4 bud formation per root (Orobanche minor [8]; 2000 ppm): 0.15 per root

growth of the host (red clover [4]; 200 ppm treatment plot): inhibited
Compound: O=C(O)c1ccnc(Cl)c1 [INA, 2-chloroisonicotinic acid]
Average parasitism frequency per root (Orobanche minor [1]; 2 ppm): 0.99 per root | Average parasitism frequency per root (Orobanche minor [1]; 20 ppm): 0.94 per root | S4 bud formation per root (Orobanche minor [1]; foliage application, 2 ppm): 0.05 per root | S4 bud formation per root (Orobanche minor [1]; foliage application, 20 ppm): 0.03 per root | parasitism frequency (Orobanche minor [1]; foliage application, concentration not given): lowered | reduction of the S4 (bud formation) (Orobanche minor [2]; seed soaking): large | Average parasitism frequency per root (Orobanche minor [2]; 20 ppm): 2.28 per root | S4 bud formation per root (Orobanche minor [2]; 20 ppm): 0.22 per root | Average parasitism frequency per root (Orobanche minor [2]; 200 ppm): 1.03 per root | S4 bud formation per root (Orobanche minor [2]; 200 ppm): 0.02 per root | number of total parasitized cases of Orobanche minor (Orobanche minor [2]; seed soaking, 200 ppm): reducing tendency | Average parasitism frequency per root (Orobanche minor [3]; 2 ppm): 1.49 per root | Average parasitism frequency per root (Orobanche minor [3]; 20 ppm): 1.03 per root | S4 bud formation per root (Orobanche minor [3]; soil irrigation, 2 ppm): 0.07 per root | S4 bud formation per root (Orobanche minor [3]; soil irrigation, 20 ppm): 0.08 per root | parasitism frequency (Orobanche minor [3]; soil irrigation, 200 ppm): slightly lowered

Compound: C=CCOC1=NS(=O)(=O)c2ccccc21 [PBZ, probenazole]
Average parasitism frequency per root (Orobanche minor [1]; 20 ppm): 2.24 per root | Average parasitism frequency per root (Orobanche minor [1]; 200 ppm): 1.75 per root | S4 bud formation per root (Orobanche minor [1]; foliage application, 20 ppm): 0.16 per root | S4 bud formation per root (Orobanche minor [1]; foliage application, 200 ppm): 0.18 per root | Average parasitism frequency per root (Orobanche minor [2]; 20 ppm): 1.50 per root | S4 bud formation per root (Orobanche minor [2]; 20 ppm): 0.28 per root | Average parasitism frequency per root (Orobanche minor [2]; 200 ppm): 1.59 per root | S4 bud formation per root (Orobanche minor [2]; 200 ppm): 0.29 per root | Average parasitism frequency per root (Orobanche minor [3]; 2 ppm): 2.47 per root | Average parasitism frequency per root (Orobanche minor [3]; 20 ppm): 3.17 per root | Average parasitism frequency per root (Orobanche minor [3]; 200 ppm): 1.52 per root | S4 bud formation per root (Orobanche minor [3]; soil irrigation, 2 ppm): 0.13 per root | S4 bud formation per root (Orobanche minor [3]; soil irrigation, 20 ppm): 0.08 per root | S4 bud formation per root (Orobanche minor [3]; soil irrigation, 200 ppm): 0.08 per root
